Results on 21 molecules are retold here after patent US20090181963A1, “3H-[1,2,3]TRIAZOLO[4,5-D]PYRIMIDINE COMPOUNDS, THEIR USE AS mTOR KINASE AND PI3 KINASE INHIBITORS, AND THEIR [sequence]” (Wyeth, priority 2008, published 2009).

The target in one assay is PI3 Kinase γ (Homo sapiens, UniProt P48736). The experiment in a line: Fluorescence polarization assay for PI3K (PI3 Kinase γ). It counts as biochemical. The conditions noted are these: diC8-PI(4,5)P2 substrate, 25 μM ATP, one hour at 25° C.
Sequence of PI3 Kinase γ (P48736 whole entry): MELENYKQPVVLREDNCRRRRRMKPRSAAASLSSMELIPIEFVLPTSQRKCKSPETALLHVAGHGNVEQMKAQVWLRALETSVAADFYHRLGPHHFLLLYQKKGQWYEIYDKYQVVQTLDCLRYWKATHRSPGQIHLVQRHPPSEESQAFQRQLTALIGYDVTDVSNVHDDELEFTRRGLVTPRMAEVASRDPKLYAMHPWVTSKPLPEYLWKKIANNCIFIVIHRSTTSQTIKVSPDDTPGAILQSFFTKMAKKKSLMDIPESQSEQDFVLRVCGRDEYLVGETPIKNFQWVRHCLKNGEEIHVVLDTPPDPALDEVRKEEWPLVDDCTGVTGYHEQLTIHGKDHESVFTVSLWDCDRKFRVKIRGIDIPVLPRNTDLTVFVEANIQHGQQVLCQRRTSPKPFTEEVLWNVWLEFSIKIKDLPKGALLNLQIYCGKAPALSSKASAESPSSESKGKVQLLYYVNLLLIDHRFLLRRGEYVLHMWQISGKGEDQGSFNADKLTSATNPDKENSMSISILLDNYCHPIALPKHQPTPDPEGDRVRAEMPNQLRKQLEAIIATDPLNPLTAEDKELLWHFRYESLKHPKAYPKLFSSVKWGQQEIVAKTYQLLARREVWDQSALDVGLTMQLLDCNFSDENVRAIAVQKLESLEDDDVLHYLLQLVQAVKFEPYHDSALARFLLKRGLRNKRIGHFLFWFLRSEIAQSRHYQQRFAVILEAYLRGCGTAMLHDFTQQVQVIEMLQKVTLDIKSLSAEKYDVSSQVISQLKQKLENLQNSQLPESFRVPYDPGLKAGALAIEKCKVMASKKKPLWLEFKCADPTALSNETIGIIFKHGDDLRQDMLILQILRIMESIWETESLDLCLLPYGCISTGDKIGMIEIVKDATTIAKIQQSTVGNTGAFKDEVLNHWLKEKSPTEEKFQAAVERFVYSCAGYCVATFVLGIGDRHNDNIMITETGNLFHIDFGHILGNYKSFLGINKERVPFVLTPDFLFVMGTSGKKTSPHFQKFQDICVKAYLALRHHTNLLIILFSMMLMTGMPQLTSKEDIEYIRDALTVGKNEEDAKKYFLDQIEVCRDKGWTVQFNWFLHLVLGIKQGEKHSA
Another assay addresses PI3 Kinase α (Homo sapiens, UniProt P42336). As to the kind of experiment: Fluorescence polarization assay for PI3K (PI3 Kinase α). It counts as biochemical. Particulars: diC8-PI(4,5)P2 substrate, 25 μM ATP, one hour at 25° C. (Fluorescence polarisation rises when a labelled molecule tumbles more slowly, as on binding a larger partner.)

The term IC50 denotes the concentration that inhibits the measured activity by half. A high value points to weaker potency in that assay.

A value given as a limit tells only on which side of the number the result lay.

Sequence of PI3 Kinase α (P42336 whole entry): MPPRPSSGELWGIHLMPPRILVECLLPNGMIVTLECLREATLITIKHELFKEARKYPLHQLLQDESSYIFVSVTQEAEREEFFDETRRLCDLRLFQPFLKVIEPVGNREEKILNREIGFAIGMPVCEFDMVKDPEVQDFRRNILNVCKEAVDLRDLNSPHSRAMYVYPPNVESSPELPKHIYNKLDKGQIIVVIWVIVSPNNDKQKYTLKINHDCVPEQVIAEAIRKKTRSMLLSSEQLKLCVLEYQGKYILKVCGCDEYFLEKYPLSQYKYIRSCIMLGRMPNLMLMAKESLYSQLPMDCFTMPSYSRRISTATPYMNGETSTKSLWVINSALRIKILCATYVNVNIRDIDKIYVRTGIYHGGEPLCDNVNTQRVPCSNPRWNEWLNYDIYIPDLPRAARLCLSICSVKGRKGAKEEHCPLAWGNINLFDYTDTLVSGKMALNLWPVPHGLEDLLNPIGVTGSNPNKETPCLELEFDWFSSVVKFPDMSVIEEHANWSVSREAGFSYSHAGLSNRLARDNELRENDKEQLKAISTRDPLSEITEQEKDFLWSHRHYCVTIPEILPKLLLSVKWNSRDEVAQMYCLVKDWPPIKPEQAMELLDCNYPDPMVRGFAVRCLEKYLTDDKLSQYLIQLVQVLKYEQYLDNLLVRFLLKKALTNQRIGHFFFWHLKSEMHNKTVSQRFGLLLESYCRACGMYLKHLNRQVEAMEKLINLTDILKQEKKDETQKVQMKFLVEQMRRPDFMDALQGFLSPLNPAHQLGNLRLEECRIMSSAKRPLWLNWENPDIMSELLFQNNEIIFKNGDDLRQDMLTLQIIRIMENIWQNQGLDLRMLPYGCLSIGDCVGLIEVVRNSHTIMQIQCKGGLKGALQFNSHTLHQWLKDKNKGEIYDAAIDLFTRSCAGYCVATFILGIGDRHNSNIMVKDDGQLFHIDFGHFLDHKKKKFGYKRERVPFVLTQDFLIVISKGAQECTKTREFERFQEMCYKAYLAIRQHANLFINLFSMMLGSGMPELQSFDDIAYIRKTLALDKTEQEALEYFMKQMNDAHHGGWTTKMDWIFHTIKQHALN
Sequence of PI3 Kinase α (P27986 whole entry partner): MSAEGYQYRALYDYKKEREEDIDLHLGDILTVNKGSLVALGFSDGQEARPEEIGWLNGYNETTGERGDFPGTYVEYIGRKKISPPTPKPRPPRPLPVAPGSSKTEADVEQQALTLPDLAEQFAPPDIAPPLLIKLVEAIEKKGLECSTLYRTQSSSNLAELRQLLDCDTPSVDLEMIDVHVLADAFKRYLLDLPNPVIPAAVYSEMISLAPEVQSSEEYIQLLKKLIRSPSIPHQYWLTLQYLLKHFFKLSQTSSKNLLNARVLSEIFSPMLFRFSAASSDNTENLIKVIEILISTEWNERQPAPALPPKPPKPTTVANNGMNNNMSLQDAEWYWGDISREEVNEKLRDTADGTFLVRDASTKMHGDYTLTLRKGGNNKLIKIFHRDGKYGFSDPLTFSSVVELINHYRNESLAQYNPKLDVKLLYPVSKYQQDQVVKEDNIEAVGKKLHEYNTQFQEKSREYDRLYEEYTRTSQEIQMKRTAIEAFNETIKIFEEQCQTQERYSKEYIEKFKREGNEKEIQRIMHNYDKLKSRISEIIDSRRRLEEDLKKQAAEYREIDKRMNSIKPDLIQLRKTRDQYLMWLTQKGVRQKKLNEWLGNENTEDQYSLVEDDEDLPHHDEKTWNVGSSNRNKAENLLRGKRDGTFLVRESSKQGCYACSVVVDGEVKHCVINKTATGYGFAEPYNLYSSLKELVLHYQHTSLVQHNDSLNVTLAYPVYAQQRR

For the molecule `CC(C)(C)OC(=O)N1CCN(CCn2nnc3c(N4CCOCC4)nc(-c4cccc(O)c4)nc32)CC1` [Example 97, tert-butyl 4-{2-[5-(3-hydroxyphenyl)-7-morpholin-4-yl-3H-[1,2,3]triazolo[4,5-d]pyrimidin-3-yl]ethyl}piperazine-1-carboxylate], the IC50 at PI3 Kinase γ was 4360 nM; against PI3 Kinase α, 1020 nM.
For `CCN(CC)C(=O)c1ccc(Cn2nnc3c(N4CCOCC4)nc(-c4cccc(O)c4)nc32)cc1` [Example 220, N,N-diethyl-4-{[5-(3-hydroxyphenyl)-7-morpholin-4-yl-3H-[1,2,3]triazolo[4,5-d]pyrimidin-3-yl]methyl}benzamide], in that order: 2420 nM and 1150 nM.
As for `O=C(c1ccc(Cn2nnc3c(N4CCOCC4)nc(-c4cccc(O)c4)nc32)cc1)N1CCCC1` [Example 228, 3-{7-morpholin-4-yl-3-[4-(pyrrolidin-1-ylcarbonyl)benzyl]-3H-[1,2,3]triazolo[4,5-d]pyrimidin-5-yl}phenol], the values for the IC50 at PI3 Kinase γ and on PI3 Kinase α were 544 nM and 911 nM, respectively.
On the same counts, the results for `CCN1CCCC1CNC(=O)Nc1ccc(-c2nc(N3CCOCC3)c3nnn(C(C)C)c3n2)cc1` (stereo not drawn) [Example 92, 1-(1-ethyl-pyrrolidin-2-ylmethyl)-3-[4-(3-isopropyl-7-morpholin-4-yl-3H-[1,2,3]triazolo[4,5-d]pyrimidin-5-yl)-phenyl]-urea] are 645 nM and 149 nM.
With `CCn1nnc2c(N3CCOCC3)nc(-c3ccc(NC(=O)Nc4ccc(C(=O)NCCCN5CCN(C)CC5)cc4)cc3)nc21` [Example 55, 4-({[4-(3-ethyl-7-morpholin-4-yl-3H-[1,2,3]triazolo[4,5-d]pyrimidin-5-yl)phenyl]carbamoyl}amino)-N-[3-(4-methylpiperazin-1-yl)propyl]benzamide], the IC50 turned out to be 16.5 nM against PI3 Kinase γ and 1.5 nM on PI3 Kinase α.
For `Oc1cncc(-c2nc(N3CCOCC3)c3nnn(C4CCN(Cc5ccc(Br)nc5)CC4)c3n2)c1` [Example 15, 5-(3-{1-[(6-bromopyridin-3-yl)methyl]piperidin-4-yl}-7-morpholin-4-yl-3H-[1,2,3]triazolo[4,5-d]pyrimidin-5-yl)pyridin-3-ol], in that order: 106 nM and 16 nM.
For `COC(=O)c1cccc(-n2nnc3c(N4CCOCC4)nc(-c4cccc(C=O)c4)nc32)c1` [Example 116, methyl 3-[5-(3-formylphenyl)-7-morpholin-4-yl-3H-[1,2,3]triazolo[4,5-d]pyrimidin-3-yl]benzoate], in that order: over 10000 nM and over 10000 nM.
On the same counts, the results for `O=C(Nc1ccccc1)Nc1ccc(-c2nc(N3CCOCC3)c3nnn(CC4CN(Cc5ccc(-c6ccncc6)cc5)C4)c3n2)cc1` [Example 193, 1-[4-(7-Morpholin-4-yl-3-{[1-(4-pyridin-4-ylbenzyl)azetidin-3-yl]methyl}-3H-[1,2,3]triazolo[4,5-d]pyrimidin-5-yl)phenyl]-3-phenylurea] are 408 nM and 68 nM.
With `CCN1CCCC1Cn1nnc2c(N3CCOCC3)nc(-c3cccc(O)c3)nc21` (stereo not drawn) [Example 172, 3-{3-[(1-ethylpyrrolidin-2-yl)methyl]-7-morpholin-4-yl-3H-[1,2,3]triazolo[4,5-d]pyrimidin-5-yl}phenol], the values for the IC50 against PI3 Kinase γ and on PI3 Kinase α were 1230 nM and 204 nM, respectively.
On the same counts, the results for `COC(Cn1nnc2c(N3CCOCC3)nc(-c3ccc(NC(=O)Nc4ccc(F)cc4)cc3)nc21)OC` [Example 180, 1-{4-[3-(2,2-dimethoxyethyl)-7-morpholin-4-yl-3H-[1,2,3]triazolo[4,5-d]pyrimidin-5-yl]phenyl}-3-(4-fluorophenyl)urea] are 152 nM and 67.5 nM.
On the same counts, the results for `O=C(NC1CC1)c1ccc(Cn2nnc3c(N4CCOCC4)nc(-c4cccc(O)c4)nc32)cc1` [Example 221, N-cyclopropyl-4-{[5-(3-hydroxyphenyl)-7-morpholin-4-yl-3H-[1,2,3]triazolo[4,5-d]pyrimidin-3-yl]methyl}benzamide] are 1180 nM and 303 nM.
For `CCn1nnc2c(N3CCOCC3)nc(-c3ccc(N)cc3)nc21` [Example 32, 4-(3-Ethyl-7-morpholin-4-yl-3H-[1,2,3]triazolo[4,5-d]pyrimidin-5-yl)-phenylamine], in that order: 4070 nM and 554 nM.
Take `Oc1cccc(-c2nc(N3CCOCC3)c3nnn(C4CCN(Cc5ccc(F)cc5)CC4)c3n2)c1` [Example 147, 3-{3-[1-(4-fluorobenzyl)piperidin-4-yl]-7-morpholin-4-yl-3H-[1,2,3]triazolo[4,5-d]pyrimidin-5-yl}phenol]: the IC50 against PI3 Kinase γ was determined as 734 nM; on PI3 Kinase α, 59 nM.
For `CN(C)CCCCn1nnc2c(N3CCOCC3)nc(-c3cccc(O)c3)nc21` [Example 202, 3-{3-[4-(dimethylamino)butyl]-7-morpholin-4-yl-3H-[1,2,3]triazolo[4,5-d]pyrimidin-5-yl}phenol], in that order: 780 nM and 224 nM.
For `O=C(Nc1ccc(Cn2nnc3c(N4CCOCC4)nc(-c4cccc(O)c4)nc32)cc1)c1ccc(Cl)cc1` [Example 197, 4-Chloro-N-(4-{[5-(3-hydroxyphenyl)-7-morpholin-4-yl-3H-[1,2,3]triazolo[4,5-d]pyrimidin-3-yl]methyl}phenyl)benzamide], in that order: 220 nM and 66 nM.
For `NCCCCn1nnc2c(N3CCOCC3)nc(-c3cccc(O)c3)nc21` [Example 204, 3-[3-(4-Aminobutyl)-7-morpholin-4-yl-3H-[1,2,3]triazolo[4,5-d]pyrimidin-5-yl]phenol], in that order: 108 nM and 132 nM.
Take `CCn1nnc2c(N3CCOCC3)nc(-c3ccc(NC(=O)Nc4ccc(C(=O)NCCCN(C)C)cc4)cc3)nc21` [Example 47, N-[3-(dimethylamino)propyl]-4-({[4-(3-ethyl-7-morpholin-4-yl-3H-[1,2,3]triazolo[4,5-d]pyrimidin-5-yl)phenyl]carbamoyl}amino)benzamide]: the IC50 against PI3 Kinase γ is 9 nM; against PI3 Kinase α, under 2.7 nM.
On the same counts, the results for `CNC(=O)Cn1nnc2c(N3CCOCC3)nc(-c3cccc(CO)c3)nc21` [Example 236, 2-{5-[3-(hydroxymethyl)phenyl]-7-morpholin-4-yl-3H-[1,2,3]triazolo[4,5-d]pyrimidin-3-yl}-N-methylacetamide] are 1880 nM and 560 nM.
For `Nc1ccc(-c2nc(N3CCOCC3)c3nnn(C4CC4)c3n2)cc1` [Example 77, 4-(3-cyclopropyl-7-morpholino-3H-[1,2,3]triazolo[4,5-d]pyrimidin-5-yl)aniline], in that order: 8000 nM and 1840 nM.
On the same counts, the results for `Oc1cccc(-c2nc(N3CCOCC3)c3nnn(C4CCN(Cc5ccccn5)CC4)c3n2)c1` [Example 149, 3-{7-morpholin-4-yl-3-[1-(pyridin-2-ylmethyl)piperidin-4-yl]-3H-[1,2,3]triazolo[4,5-d]pyrimidin-5-yl}phenol] are 735 nM and 67 nM.
For the molecule `COC(=O)NC(=O)Nc1ccc(-c2nc(N3CCOCC3)c3nnn(C4CCN(C(=O)OC(C)(C)C)CC4)c3n2)cc1` [Example 169, tert-butyl 4-[5-(4-{[(methoxycarbonyl)carbamoyl]amino}phenyl)-7-morpholin-4-yl-3H-[1,2,3]triazolo[4,5-d]pyrimidin-3-yl]piperidine-1-carboxylate], the IC50 against PI3 Kinase γ and against PI3 Kinase α was over 10000 nM in each case.
